From publication PMC3177945 (Bioorganic & medicinal chemistry letters, 2010)

Target: AmpC β-lactamase (Escherichia coli, UniProt P00811)
Test: biochemical
Format: biochemical

Chain of AmpC β-lactamase (P00811 20-377): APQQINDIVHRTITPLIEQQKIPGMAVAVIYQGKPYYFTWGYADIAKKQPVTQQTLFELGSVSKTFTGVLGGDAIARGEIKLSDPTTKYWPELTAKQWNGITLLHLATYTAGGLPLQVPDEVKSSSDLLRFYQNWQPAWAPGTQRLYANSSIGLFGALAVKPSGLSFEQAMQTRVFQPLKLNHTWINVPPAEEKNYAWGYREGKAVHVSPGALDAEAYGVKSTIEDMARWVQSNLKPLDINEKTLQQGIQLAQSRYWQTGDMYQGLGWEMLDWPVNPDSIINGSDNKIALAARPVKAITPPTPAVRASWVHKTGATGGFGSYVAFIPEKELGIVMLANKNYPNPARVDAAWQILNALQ

| SMILES | increase of affinity for AmpC compared to non-carboxylate analog (4-carboxy derivative vs non-carboxylate analog (6–9, 1)) | Ki |
| --- | --- | --- |
| Cc1noc(C)c1S(=O)(=O)Nc1cc(B(O)O)ccc1C(=O)O [compound 12] | performed worse with respect to its analog | – |
| O=C(O)c1ccc(C(=O)Nc2cccc(S(=O)(=O)Nc3cc(B(O)O)ccc3C(=O)O)c2)cc1 [compound 13] | – | 0.1 µM |
